Results on twelve compounds are retold here after publication PMC3820707, “Structure-Activity Relationships of Constrained Phenylethylamine Ligands for the Serotonin 5-HT2 Receptors” (PLoS ONE, 2013).

For data set [1], the target named is T1, 5-HT2A (Homo sapiens, UniProt P28223). The following applies: read-out: Affinity, Ki 5-HT2A; cited from earlier work.
In data set [2] the target is 5-HT2C. Conditions: Rat; read-out: Affinity, Ki 5-HT2C; cited from earlier work.
The target of data set [3] is 5-HT2A. The following applies: cited from earlier work; for Ki: Rat, read-out: Affinity, Ki 5-HT2A.
In data set [4] the target is T1, 5-HT2A. The experiment in a line: Competition binding with [3H]-ketanserin (NIMH PDSP).
Another data set deals with 5-HT2B (Homo sapiens, UniProt P41595). Kind of data set: Competition binding with [3H]-LSD (NIMH PDSP).
Chain of 5-HT2B (P41595 whole entry): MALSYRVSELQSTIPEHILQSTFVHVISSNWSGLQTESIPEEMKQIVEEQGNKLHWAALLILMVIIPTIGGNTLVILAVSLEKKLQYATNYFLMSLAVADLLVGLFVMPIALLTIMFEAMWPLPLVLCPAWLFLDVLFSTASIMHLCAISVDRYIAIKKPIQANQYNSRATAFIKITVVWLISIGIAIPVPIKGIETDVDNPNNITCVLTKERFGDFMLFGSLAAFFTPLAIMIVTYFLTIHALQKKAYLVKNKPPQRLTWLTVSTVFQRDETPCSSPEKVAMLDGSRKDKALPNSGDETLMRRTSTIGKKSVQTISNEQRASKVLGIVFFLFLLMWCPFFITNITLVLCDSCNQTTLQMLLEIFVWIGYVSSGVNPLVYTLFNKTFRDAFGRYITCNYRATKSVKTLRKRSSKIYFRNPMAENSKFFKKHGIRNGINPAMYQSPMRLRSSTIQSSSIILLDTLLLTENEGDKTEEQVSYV
The target in data set [5] is T2, 5-HT2C (Homo sapiens, UniProt P28335).
T2 sequence (P28335 33-458): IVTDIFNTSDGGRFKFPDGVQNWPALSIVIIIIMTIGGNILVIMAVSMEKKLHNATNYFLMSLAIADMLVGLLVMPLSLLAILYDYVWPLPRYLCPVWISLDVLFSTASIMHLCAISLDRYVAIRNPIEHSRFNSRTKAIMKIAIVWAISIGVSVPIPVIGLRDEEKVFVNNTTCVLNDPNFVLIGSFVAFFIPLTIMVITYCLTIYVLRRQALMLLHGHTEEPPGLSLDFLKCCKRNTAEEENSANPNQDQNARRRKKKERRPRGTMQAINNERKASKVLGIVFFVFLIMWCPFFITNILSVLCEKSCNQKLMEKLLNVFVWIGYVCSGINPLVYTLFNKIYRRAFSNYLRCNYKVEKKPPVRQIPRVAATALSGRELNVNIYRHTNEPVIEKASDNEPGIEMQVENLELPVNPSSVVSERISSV
The experiment in a line: Competition binding with [3H]-mesulergine (NIMH PDSP).

The next data set deals with 5-HT2A-C. Further details: method as in PMID 9857084. The following applies: range over 5-HT2A, 5-HT2B, 5-HT2C; read-out: Affinity in 5-HT2A-C; cited from earlier work.
Setting [6] is: Affinity, Ki 5-HT2B, radioligand [3H]-LSD.

Counter-ions that a name gives are not always drawn. Like-named read-outs stand apart in the source and are kept apart here.

T1 sequence (P28223 whole entry): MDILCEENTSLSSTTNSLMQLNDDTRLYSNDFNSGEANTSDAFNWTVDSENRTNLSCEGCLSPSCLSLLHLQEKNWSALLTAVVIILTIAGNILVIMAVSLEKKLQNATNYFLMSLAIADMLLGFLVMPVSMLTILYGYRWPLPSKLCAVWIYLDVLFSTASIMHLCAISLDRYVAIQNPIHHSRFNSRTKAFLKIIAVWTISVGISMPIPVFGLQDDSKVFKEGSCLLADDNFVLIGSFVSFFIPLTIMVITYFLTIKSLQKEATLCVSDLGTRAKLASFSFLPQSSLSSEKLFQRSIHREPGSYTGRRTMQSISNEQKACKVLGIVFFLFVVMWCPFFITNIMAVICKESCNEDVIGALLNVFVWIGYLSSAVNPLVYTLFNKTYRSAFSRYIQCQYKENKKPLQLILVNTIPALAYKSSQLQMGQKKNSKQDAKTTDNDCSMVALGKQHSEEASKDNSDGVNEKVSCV

Turning to `COc1cc(CCN)c(OC)cc1Br` [Compound 1a, 2C-B], the Ki at 5-HT2A [1] was 0.88 nM.
Take `COc1cc(Br)c(OC)c2c1C(CN)CC2` (stereo not shown) [Compound 7]: on 5-HT2A [1], the Ki was 47 nM.
Regarding `COc1cc(CC(C)N)c(OC)cc1Br` (stereo not shown) [Compound 1b, DOB], the results for the Ki at 5-HT2C [2] and at 5-HT2A [3] were 2.82 nM and […], respectively.
On to `COc1cc2c(cc1Br)OCC2CN` (stereo not shown) [Compound 9, (6-Bromo-5-methoxy-2,3-dihydrobenzofuran-3-yl)methanamine], for which the values for the Ki at 5-HT2A [4], at 5-HT2B (setting [6]) and on 5-HT2C [5] were 1040 ± 188 nM, 196 ± 28 nM and 135 ± 31 nM, respectively.
On to `COc1cc2c(cc1Br)OCCC(N)C2` (stereo not shown) [Compound 8], for which, in the data set with 5-HT2A [3] (5-HT2A), the “Fold lower affinity than the unconstrained reference DOB” value is reported as 373 fold. For the same compound, the Ki on 5-HT2A [3] was 422 nM.
As usually defined, the melting point is the temperature of the solid-liquid transition. For `COc1cc2c(cc1Br)OCCCC2CN` (stereo not shown) (as salt: hydrochloride) [Compound 11, (8-Bromo-7-methoxy-2,3,4,5-tetrahydrobenzo[b]oxepin-5-yl)methanamine], the melting point lay in the range of 224 to 226 °C.
Take `COc1cc2c(cc1Br)OCCCC2CN` (stereo not shown) [Compound 11, (8-Bromo-7-methoxy-2,3,4,5-tetrahydrobenzo[b]oxepin-5-yl)methanamine]: the Ki at 5-HT2A [4] was over 10000 nM; at 5-HT2B (Affinity for 5-HT2B, radioligand [3H]-LSD), 1900 nM; at 5-HT2B (setting [6]) it was 1870 ± 345 nM; on 5-HT2C [5], over 10000 nM. In addition, at 5-HT2A [4] (Human, radioligand [3H]-ketanserin), the “Affinity, Ki 5-HT2A” value is “inactive”. Moreover, on 5-HT2C [5] (Human, radioligand [3H]-mesulergine), the “Affinity, Ki 5-HT2C” value is “inactive”.
In the case of `NCCc1c2c(c(Br)c3c1OCCC3)OCCC2` [Compound 3a, 2C-B-butterfly], the Ki at 5-HT2C [2] is 1.52 nM; at 5-HT2A [3] it was 1.76 nM.
Regarding `CC(N)Cc1c2c(c(Br)c3c1OCCC3)OCCC2` (stereo not shown) [Compound 3b, DOB-butterfly], the Ki is 1.85 nM at 5-HT2C [2] and 3.87 nM on 5-HT2A [3].
In the case of `COc1cc2c(cc1Br)OCC2CN` (stereo not shown) (as salt: hydrochloride) [Compound 9, (6-Bromo-5-methoxy-2,3-dihydrobenzofuran-3-yl)methanamine], the melting point is 232 to 234 °C (dec.).
Take “(6-Methoxychroman-4-yl)methanamine [Compound 10]”: the Ki at 5-HT2A [4] (read-out: Affinity, Ki 5-HT2A, Human, radioligand [3H]-ketanserin) amounted to 847 ± 79 nM; on 5-HT2B (read-out: Affinity, Ki 5-HT2B, radioligand [3H]-LSD), 70 ± 13 nM; on 5-HT2C [5] (read-out: Affinity, Ki 5-HT2C, Human, radioligand [3H]-mesulergine), 124 ± 9 nM.
With `CC(N)Cc1c2ccoc2c(Br)c2ccoc12` (stereo not shown) [Compound 4, Bromo-DragonFLY], the Ki at 5-HT2A-C is 0.02 to 0.19 nM.
